Laboratory results: publication PMC8136874, “The entry reaction of the plant shikimate pathway is subjected to highly complex metabolite-mediated regulation” (The Plant Cell, 2021)
pIC50: −log10 of the molar value. Read-outs that look alike come from different tables or passages of the source.

Key:
AthDHS3 = AthDHS3 (Arabidopsis thaliana, UniProt Q9SK84); test: DHS enzymatic activity assay with recombinant AthDHS3; type: biochemical; conditions: for effect on AthDHS3 activity (in words): 1 mM effector
Chain of AthDHS3 (Q9SK84 entry or part of it): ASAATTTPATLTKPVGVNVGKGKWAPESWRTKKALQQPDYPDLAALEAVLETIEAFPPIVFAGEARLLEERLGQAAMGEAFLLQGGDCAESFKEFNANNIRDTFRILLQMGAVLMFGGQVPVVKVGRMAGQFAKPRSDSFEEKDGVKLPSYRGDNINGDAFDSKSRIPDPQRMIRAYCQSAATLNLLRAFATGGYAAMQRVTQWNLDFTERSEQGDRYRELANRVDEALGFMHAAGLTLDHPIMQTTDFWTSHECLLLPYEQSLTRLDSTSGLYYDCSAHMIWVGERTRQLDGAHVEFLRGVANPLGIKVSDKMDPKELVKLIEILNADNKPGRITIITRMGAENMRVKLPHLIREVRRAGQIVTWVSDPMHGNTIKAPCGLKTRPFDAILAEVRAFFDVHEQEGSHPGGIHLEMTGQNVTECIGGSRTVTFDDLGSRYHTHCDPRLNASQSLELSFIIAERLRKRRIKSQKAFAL
Protocol: (§1) Unless otherwise noted, DHS enzymatic activity was monitored as previously described ([Liu et al., 2008]), with several optimizations for high-throughput assays with eight-strip PCR tubes and a thermal cycler. The enzyme solution (7.7 µL) containing 50 mM HEPES (pH 7.4) was preincubated with an effector molecule(s) at room temperature for 10 min. For assays using recombinant protein and enzyme fraction isolated from plant leaves, 0.01–0.05 µg and approximately 50 µg of proteins were used, respectively. After adding 0.5 µL of 0.1 M DTT, the samples were further incubated at room temperature for 15 min. […] The enzyme reaction was started by adding 6.8 µL of the substrate solution, then incubated at 37°C for 20 min, and terminated by adding 30 µL of 0.6 M trichloroacetic acid. After brief centrifugation, 5 µL of 200 mM NaIO4 (sodium meta-periodate) in 9 N H3PO4 was added to oxidize the enzymatic product and incubate at 25°C for 20 min. To stop the oxidation reaction, 20 µL of 0.75 M NaAsO2 (sodium arsenite), which was dissolved in 0.5 M Na2SO4 and 0.05 M H2SO4, was immediately mixed. After 5 min of incubation at room temperature, one-third of the sample solution was transferred to a new tube to be mixed with 50 µL of 40 mM thiobarbituric acid and incubated at 99°C for 15 min in a thermal cycler. Developed pink chromophore was extracted by putting the final solutions with 600 µL of cyclohexanone in eight-strip solvent-resistant plastic tubes, mixing vigorously and centrifuging them at 4,500 × g for 3 min to separate water- and cyclohexanone-based layers. The absorbance of the pink supernatant was read at 549 nm with the microplate reader (Infinite 200 PRO, TECAN, Männedorf, Switzerland) to calculate DAHP production with the molar extinction coefficient at 549 nm (ε = 549 nm) of 4.5 × 10^4/M/cm. Reaction mixtures with boiled enzyme or without any substrates were run in parallel and used as negative controls to estimate the background signal for recombinant enzymes or enzymatic fraction from plant tissues, respectively.
(§2) For determination of kinetic parameters, the data of enzymatic activities measured in the presence of various concentration of substrates were calculated with the Michaelis–Menten equation in Graphpad Prism 6 (GraphPad Software, San Diego, CA, USA).

[1] = test system: DHS activities from maize (Zea mays) shoots; set-up: method as in Graziana and Boudet, 1980; conditions: 1 mM; ref Graziana and Boudet, 1980; cited from earlier work
AthDHS1 = target: T1, AthDHS1 (Arabidopsis thaliana, UniProt P29976); test: DHS enzymatic activity assay with recombinant AthDHS1; type: biochemical; conditions: for effect on AthDHS1 activity (in words): 1 mM effector; for pIC50: varied effector concentrations, read-out: IC50 of AthDHS1 inhibition
T1 construct: AthDHS1; residues 49–525; hexa-histidine; made in house; host or cells: E. coli Rosetta2 (DE3), pET28a
T1 sequence (P29976 49-525): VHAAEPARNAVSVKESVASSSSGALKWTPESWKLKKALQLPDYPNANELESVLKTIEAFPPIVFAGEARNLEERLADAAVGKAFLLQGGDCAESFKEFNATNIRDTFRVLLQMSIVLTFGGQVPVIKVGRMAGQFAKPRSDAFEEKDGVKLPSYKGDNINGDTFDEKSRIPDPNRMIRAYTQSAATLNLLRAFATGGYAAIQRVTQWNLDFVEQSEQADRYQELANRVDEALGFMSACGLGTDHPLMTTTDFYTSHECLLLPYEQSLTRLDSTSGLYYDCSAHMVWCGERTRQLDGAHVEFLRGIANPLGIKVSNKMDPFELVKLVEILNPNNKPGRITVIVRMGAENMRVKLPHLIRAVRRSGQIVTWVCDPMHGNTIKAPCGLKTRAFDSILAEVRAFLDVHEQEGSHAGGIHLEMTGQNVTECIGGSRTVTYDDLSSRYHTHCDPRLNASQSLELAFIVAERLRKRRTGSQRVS
Protocol: as §1, §2

AthDHS2 = target: T2, AthDHS2 (Arabidopsis thaliana, UniProt Q00218); test: DHS enzymatic activity assay with recombinant AthDHS2; type: biochemical; conditions: for pIC50: varied effector concentrations, read-out: IC50 of AthDHS2 inhibition
T2 construct: AthDHS2; residues 34–507; hexa-histidine; made in house; host or cells: E. coli Rosetta2 (DE3), pET28a
T2 sequence (Q00218 34-507): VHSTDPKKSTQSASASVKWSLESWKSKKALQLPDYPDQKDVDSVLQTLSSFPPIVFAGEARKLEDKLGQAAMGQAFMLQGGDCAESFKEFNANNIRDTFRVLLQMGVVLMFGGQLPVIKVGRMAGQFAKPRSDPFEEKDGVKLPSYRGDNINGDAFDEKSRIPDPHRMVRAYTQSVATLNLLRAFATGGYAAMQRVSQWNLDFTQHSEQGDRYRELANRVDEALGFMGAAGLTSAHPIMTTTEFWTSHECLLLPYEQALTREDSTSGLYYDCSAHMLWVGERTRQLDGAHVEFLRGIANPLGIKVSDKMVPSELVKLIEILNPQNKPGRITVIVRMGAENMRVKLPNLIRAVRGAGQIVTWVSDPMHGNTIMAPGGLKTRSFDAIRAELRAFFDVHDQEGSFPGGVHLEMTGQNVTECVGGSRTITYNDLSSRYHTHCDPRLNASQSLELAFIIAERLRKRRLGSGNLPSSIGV

[2] = test system: carrot (Daucus carota) DHS; set-up: method as in Suzich et al., 1985; conditions: ref Suzich et al., 1985; cited from earlier work
[3] = test system: AthDHS1 and AthDHS2 mixtures; test: DHS assay using mixtures of AthDHS1 and AthDHS2 recombinant enzymes; type: biochemical, Arabidopsis thaliana; conditions: 1 mM effector; molar ratios 0, 0.25, 0.5, 0.75, 1
Protocol: Next, we thought that the presence of non-inhibited DHS isoforms (e.g. AthDHS1) may affect the AAA sensitivity of AthDHS2, given that AthDHSs are known to function as tetrameric or dimeric forms ([Suzich et al., 1985]; [Pinto et al., 1986]; [Webby et al., 2005]). To test this, the recombinant enzymes of AAA non-inhibited AthDHS1 and AAA-inhibited AthDHS2 were mixed with different ratios (0, 0.25, 0.5, 0.75, and 1) and DHS activity assays were conducted with different inhibitors. Based on the kinetic parameters and the regulatory behaviors of individual AthDHSs, the expected level of DHS activity was first calculated and plotted (dotted lines in Figure 5, D, see the “Materials and methods” section). […] Similar results were obtained for the AthDHS2 and AthDHS3 mixture (Figure 5, E).
Unless otherwise noted, DHS enzymatic activity was monitored as previously described ([Liu et al., 2008]), with several optimizations for high-throughput assays with eight-strip PCR tubes and a thermal cycler. The enzyme solution (7.7 µL) containing 50 mM HEPES (pH 7.4) was preincubated with an effector molecule(s) at room temperature for 10 min. For assays using recombinant protein and enzyme fraction isolated from plant leaves, 0.01–0.05 µg and approximately 50 µg of proteins were used, respectively. After adding 0.5 µL of 0.1 M DTT, the samples were further incubated at room temperature for 15 min. […] The enzyme reaction was started by adding 6.8 µL of the substrate solution, then incubated at 37°C for 20 min, and terminated by adding 30 µL of 0.6 M trichloroacetic acid. After brief centrifugation, 5 µL of 200 mM NaIO4 (sodium meta-periodate) in 9 N H3PO4 was added to oxidize the enzymatic product and incubate at 25°C for 20 min. […] The absorbance of the pink supernatant was read at 549 nm with the microplate reader (Infinite 200 PRO, TECAN, Männedorf, Switzerland) to calculate DAHP production with the molar extinction coefficient at 549 nm (ε = 549 nm) of 4.5 × 10^4/M/cm. […]

[4] = test system: root growth of Arabidopsis Col-0 and dhs mutants; test: Chemical feeding experiment, root length of 10-day-old seedlings; type: in vivo, Arabidopsis thaliana; conditions: for pIC50: Arabidopsis thaliana
Protocol: (§3) Chemical feeding experiments were carried out as described previously ([de Oliveira et al., 2019]) with some modifications. Seedlings were grown on agar plates containing 0.5 MS with 1% sucrose, 0.8% agar, and 2.5 mM MES at pH 5.7 in the growth chamber where we grew other plants in soil. AAAs and/or shikimate were added to autoclaved media after cooling down to temperatures below 55°C. Plants were grown on the same plate side by side to minimize environmental effects, and multiple plates were prepared to obtain replications. Root lengths of 10-day-old seedlings were quantified by ImageJ.

[5] = test system: Arabidopsis Col-0 and dhs mutants; type: in vivo, Arabidopsis thaliana; conditions: 300 µM, 14 days after germination
Protocol: as §3

[6] = test system: shikimate accumulation in Col-0 and dhs mutants; test: Shikimate content with and without Tyr and/or glyphosate treatment; type: in vivo, Arabidopsis thaliana; conditions: 300 µM, without glyphosate; all genotypes except dhs1
Protocol: Approximately 50–80 mg of fully expanded mature leaves were pooled from multiple plants at the same developmental stages and ground in 800 µL of extraction buffer (v/v 2:1 of methanol and chloroform with 2 µg/mL isovitexin [Millipore-Sigma], 100 µM norvaline [Thermo Fisher Scientific], and 1.25 µg/mL Tocol [Matreya LLC, State College, PA, USA] for internal standards for soluble metabolite analysis by LC–MS and GC–MS and tocopherol analysis by GC–MS, respectively), using 1600 MiniG Tissue Homogenizer (SPEX SamplePrep, Metuchen, USA) and 3-mm glass beads. After adding 600 µL of H2O and then 250 µL of chloroform, polar phase containing amino acids, and non‐polar phase containing tocopherols were separated by centrifugation, dried in new tubes. To detect Trp and AAA-derived metabolites, LC–MS analysis was carried out as previous described with some modification ([Alseekh et al., 2015]). The dried metabolites were resuspended in 70 µL of 80% LC–MS-grade methanol. Two microliters of the sample was injected onto a HSS T3 C18 reversed phase column (100 × 2.1 mm i.d., 1.8-μm particle size; Waters, Milford, CT, USA) and eluted using a 20-min gradient comprising 0.1% formic acid in LC–MS-grade water (solvent A) and 0.1% formic acid in LC–MS-grade acetonitrile (solvent B) at a flow rate of 0.4 mL/min and column temperature of 40°C. The binary linear gradient with following ratios of solvent B was used: 0–1 min, 1%; 1–13 min, 1%–35%; 13–14.5 min, 35%–70%; 14.5–15.5 min, 70%–99%, 15.5–17 min, 99%; 17–17.5 min, 99%–[…]; 17.5–20 min, 1%. The spectra were recorded using full scan mode of negative ion detection, covering a mass range from m/z 100 to 1,500. The resolution was set to 25,000 and the maximum scan time was set to 250 ms. The sheath gas was set to a value of 60, while the auxiliary gas was set to 35. The transfer capillary temperature was set to 150°C, while the heater temperature was adjusted to 300°C. The spray voltage was fixed at 3 kV, with a capillary voltage and a skimmer voltage of 25 and 15 V, respectively. Retention times, MS spectra, and associated peak intensities were extracted from the raw files using the Xcalibur software (Thermo Fisher Scientific). […] For anthocyanin quantification, the polar phase isolated for amino acid analysis was diluted 10 times with water in a new tube. […] Shikimate level was spectrometrically determined based on previous literatures ([Shaner et al., 2005]; [Sharkhuu et al., 2014]). […] After stopping the reaction by adding 100 µL of a termination solution containing 0.6 N sodium hydroxide and 0.22 M sodium sulfite, the absorption at 380 nm was immediately measured with the microplate reader. Shikimate concentration was determined by comparing with a dilution series of the shikimate standards.

[7] = test system: DHS activities from pea (Pisum sativum) leaves; set-up: method as in Reinink and Borstlap, 1982; conditions: 1 mM; ref Reinink and Borstlap, 1982; cited from earlier work
[8] = test system: DHS activity from spinach (Spinacia oleracea) leaves; set-up: method as in Doong et al., 1993; conditions: ref Doong et al., 1993; cited from earlier work
[9] = test system: DHS activity from mung bean (Vigna radiata) seedlings; set-up: method as in Rubin and Jensen, 1985; conditions: ref Rubin and Jensen, 1985; cited from earlier work
[10] = test system: total DHS activity in Arabidopsis leaf extracts; test: DHS activity assay of crude extracts from Arabidopsis mature leaves; type: biochemical, Arabidopsis thaliana; conditions: 1 mM; Col-0
[11] = test system: total DHS activity in spinach leaf extracts; test: DHS activity assay of crude extracts from spinach mature leaves; type: biochemical, Spinacia oleracea; conditions: 1 mM
Protocol: (§4) Spinach (S. oleracea) leaves were purchased at a local grocery store. For de-etiolated spinach seedlings, spinach was germinated on the soil and grown in the dark for 3 days, followed by exposure to normal growth light for 1 day for de-etiolation. More than 20 g of fully expanded mature leaves or whole de-etiolated seedlings were harvested and ground to a fine powder in a mortar and pestle with liquid nitrogen. After dissolving in 100 mL extraction buffer (20 mM HEPES [pH 7.6], 1 mM DTT and 0.1% β-mercaptoethanol) and filtrating with Miracloth, the samples were centrifuged at 10,000 × g for 10 min and subsequently at 50,000 × g for 30 min. […] The concentrated solution was desalted twice by Sephadex G50 column size-exclusion chromatography (GE Healthcare) into 1 mL of 50 mM HEPES (pH 7.4) and quantified by the Bradford assay ([Bradford, 1976]). […]
(§5) Unless otherwise noted, DHS enzymatic activity was monitored as previously described ([Liu et al., 2008]), with several optimizations for high-throughput assays with eight-strip PCR tubes and a thermal cycler. […] The absorbance of the pink supernatant was read at 549 nm with the microplate reader (Infinite 200 PRO, TECAN, Männedorf, Switzerland) to calculate DAHP production with the molar extinction coefficient at 549 nm (ε = 549 nm) of 4.5 × 10^4/M/cm. […]

[12] = test system: DHS activity from the spinach seedling extracts; test: DHS activity assay of crude extracts from de-etiolated spinach seedlings; type: biochemical, Spinacia oleracea; conditions: 1 mM
Protocol: as §4, §5

[13] = read-out: IC50 of root growth impairment
[14] = read-out: concentration giving 50% growth inhibition

SMILES | effect on AthDHS3 activity (in words) (AthDHS3) | effect on AthDHS1 activity (in words) (AthDHS1) | pIC50 (AthDHS2) | observed DHS activity of the enzyme mixtures versus theoretically calculated activity [3] | pIC50 [4, 13] | pIC50 [4, 14] | effect on total DHS activity of Arabidopsis mature leaf extract [10] | effect on total DHS activity of spinach mature leaf extract [11] | effect on DHS activity of de-etiolated spinach seedling extract [12] | pIC50 (AthDHS1) | also measured
N[C@@H](Cc1c[nH]c2ccccc12)C(=O)O [Trp, L-tryptophan] | activated | significantly activated | 3.65 | significantly higher than theoretically calculated activities | 3.86 | < 3.52 |  |  |  |  | inhibition of DHS activity [1]: 50%; effect on DHS activity [2]: activation; concentration that specifically impaired root growth ([4]; dhs3 mutant): ≥ 100 µM
N[C@@H](Cc1ccc(O)cc1)C(=O)O [Tyr, L-tyrosine] |  | significantly activated |  | significantly higher than theoretically calculated activities | 4.10 | < 3.52 |  |  |  |  | phenotype of newly growing leaves ([5]; Col-0 and dhs3): cup-like shape; shoot phenotype ([5]; dhs1): very small and pale; cup-shaped leaf phenotype ([5]; dhs2): did not appear; effect on shikimate level [6]: did not alter the shikimate level; inhibition of DHS activity [7]: 60%; concentration that specifically impaired root growth ([4]; dhs1 mutant): ≥ 100 µM; effect of the added compound on Trp-mediated root growth inhibition of dhs3 ([4]; media with 300 µM Trp, AAAs added at 300 µM, shikimate at 500 µM): not recovered
N[C@@H](CC1(C(=O)O)C=CC(O)C=C1)C(=O)O (some centres unmarked) [arogenate] | did not significantly affect | did not significantly affect |  |  |  |  |  |  |  |  | concentration beyond which DHS activity is inhibited [8]: > 1 mM; inhibition of AthDHS2 activity (AthDHS2; 1 mM effector): ~75%; concentration beyond which DHS activity is inhibited [9]: > 0.4 mM
O=C(O)/C=C/c1ccc(O)c(O)c1 [caffeate] | completely inhibited | completely inhibited |  |  |  |  | more than half | more than half | significantly reduced | 4.30 | pIC50 (AthDHS3): 4.27
C=C(O[C@@H]1C=C(C(=O)O)C=C[C@H]1O)C(=O)O [chorismate] | completely inhibited | completely inhibited | 4.28 |  |  |  | more than half | more than half | significantly reduced | 4.01 | pIC50 (AthDHS3; varied effector concentrations, read-out: IC50 of AthDHS3 inhibition): 4.08; effect on AthDHS2 activity (in words) (AthDHS2; 1 mM effector): completely inhibited
